Results from PMC12521615, “Accurate affinity models for SH2 domains from peptide binding assays and free‐energy regression” (Protein Science : A Publication of the Protein Society, 2025).
Non-standard residues stand in square brackets, D forms with d. Residues, ends and D or L forms follow the SMILES beside them. pY = N[C@@H](Cc1ccc(OP(=O)(O)O)cc1)C(=O)O

biological target: T1, Fyn SH2 domain (Homo sapiens, UniProt P06241); assay: biochemical; format: binding; conditions: not given
T1 construct: The human SH2 domains from Fyn (142–248), Lyn (121–228); His6-SUMO (N, cleaved yes); host or cells: Escherichia coli C43(DE3) with BirA helper plasmid
T1 sequence (P06241 142-248): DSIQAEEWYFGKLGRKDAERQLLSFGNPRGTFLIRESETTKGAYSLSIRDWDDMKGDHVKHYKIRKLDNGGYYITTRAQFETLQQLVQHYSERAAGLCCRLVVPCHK
Excerpt: The human SH2 domains from Fyn (142–248), Lyn (121–228), Blk (116–222), and Yes (150–257) kinases were PCR‐amplified from plasmids encoding the full‐length proteins and cloned using the NEBuilder® HiFi DNA Assembly Master Mix (NEB) in a pET plasmid backbone that was PCR‐amplified with the primers pETXbaI_for and pETXhoI_rev (these and all other primers are defined in Table S7) from the pET‐His6‐SUMO‐Grb2(SH2), as reported before (Li et al., [2023]), thus adding an N‐terminal His6‐SUMO tag and a C‐terminal AviTag® for biotinylation. The SH2 plasmids are available via Addgene: pET28‐His6‐SUMO‐Fyn‐SH2‐AviTag (214202), pET28‐His6‐SUMO‐Blk‐SH2‐AviTag (214204), pET28‐His6‐SUMO‐Lyn‐SH2‐AviTag (214207), pET28‐His6‐SUMO‐Yes‐SH2‐AviTag (214208), and pET28‐His6‐SUMO‐cSrc‐SH2‐AviTag (214230). For expression and parallel biotinylating of the SH2 domain product, Escherichia coli C43(DE3) cells carrying a BirA encoding helper plasmid were transformed with the respective SH2 domain expression construct and plated to grow overnight at 37°C on a streptomycin and kanamycin (100 μg/mL both) LB‐agar plate. The colonies were collected in 10 mL of TB medium and used to inoculate 1 L of TB medium and grown at 37°C and 215 rpm. Upon reaching an OD600 of 0.5, the expression of the SH2 domains was induced by adding IPTG up to 0.5 mM and biotin up to 250 μM, and the expressing culture was incubated at 18°C for 16–18 h. After removing the medium through centrifugation, the cell pellets were snap‐frozen in liquid N2 and stored at −80°C until purification. To purify the biotinylated SH2 domains, the cell pellets were resuspended in lysis buffer (50 mM Tris, pH 7.5, 300 mM NaCl, 20 mM imidazole, 10% glycerol), supplementing them with 2 mM β‐mercaptoethanol and 1× protease inhibitor cocktail before lysis by sonication (Fisherbrand Sonic Dismembrator). The soluble fraction separated after centrifugation at 33,000 g was run on a HisTrap HP column (Cytiva), then washed with 10 CV of the lysis buffer followed by 10 CV of wash buffer (50 mM Tris, pH 7.5, 50 mM NaCl, 10 mM imidazole, 10% glycerol). Next, the protein was eluted with elution buffer (50 mM Tris, pH 7.5, 50 mM NaCl, 250 mM imidazole, 10% glycerol) directly onto a 5 mL HiTrap Q HP anion exchange column (Cytiva). The biotinylated SH2 domain was then eluted from the anion exchange column with an NaCl gradient (50 mM Tris, pH 7.5, 0.05–1 M NaCl, 1 mM TCEP‐HCl), and the His6‐SUMO tag was cleaved using 0.05 mg/mL Ulp1 protease. The biotinylated SH2 domain was then collected in a flowthrough after running the cleavage reaction over a HisTrap HP column. Finally, the biotinylated SH2 domain in the flowthrough was run on a HiLoad 16/600 Superdex 75 pg size exclusion column (Cytiva) in storage buffer (20 mM HEPES, pH 7.5, 150 mM NaCl, 10% glycerol). The purified biotinylated SH2 domains were aliquoted, snap‐frozen in liquid N2, and stored at −80°C.
Measured binding constants (K D) from competition mode fluorescence polarization experiments were obtained using the purified SH2 domains used for the selection and chosen sets of peptides with a phosphorylated tyrosine exactly as described previously (Li et al., [2023]). […] (c‐Src SH2 consensus) was used as the probe, and for the Grb2 SH2 domain, the fluorescently labeled peptide FITC‐Ahx‐FDDPS(pY)VNVQN (Ahx = 6‐aminohexanoic acid) from the Y177 phospho‐tyrosine site of BCR. Before performing the competition mode fluorescence polarization measurement, the K D of the probes for the respective SH2 domains was first measured in a direct mode of fluorescence polarization.

Row | Compound | Kd [nM]
1 | CC(=O)N[C@@H](CCC(N)=O)C(=O)N[C@@H](CC(C)C)C(=O)N[C@@H](Cc1c[nH]cn1)C(=O)N[C@H](C(=O)N[C@@H](Cc1c[nH]cn1)C(=O)N1CCC[C@H]1C(=O)N[C@@H](Cc1ccc(OP(=O)(O)O)cc1)C(=O)N[C@@H](CCC(=O)O)C(=O)N[C@@H](CCCCN)C(=O)N[C@H](C(=O)N[C@@H](CCC(=O)O)C(=O)N[C@@H](CC(=O)O)C(=O)NCC(N)=O)C(C)C)C(C)C [Syn-F-1] (Ac-QLHVHP[pY]EKVEDG-NH2) | 30.2
2 | CC[C@H](C)[C@H](NC(=O)[C@@H]1CCCN1C(=O)[C@H](CCC(N)=O)NC(C)=O)C(=O)N[C@@H](Cc1ccccc1)C(=O)N[C@@H](CCC(=O)O)C(=O)NCC(=O)N[C@@H](Cc1ccc(OP(=O)(O)O)cc1)C(=O)N[C@@H](C)C(=O)N[C@@H](CC(C)C)C(=O)N1CCC[C@H]1C(=O)N[C@@H](Cc1c[nH]cn1)C(=O)N[C@@H](C)C(=O)NCC(N)=O [ACTA1 pY171] (Ac-QPIFEG[pY]ALPHAG-NH2) | 47.3
3 | CC(=O)N[C@@H](CCC(N)=O)C(=O)N[C@@H](CO)C(=O)N[C@@H](CC(C)C)C(=O)N[C@@H](CCC(=O)O)C(=O)N[C@@H](CCCCN)C(=O)N[C@@H](CO)C(=O)N[C@@H](Cc1ccc(OP(=O)(O)O)cc1)C(=O)N[C@@H](CCC(=O)O)C(=O)N[C@@H](CC(C)C)C(=O)N[C@@H](CC(C)C)C(=O)N[C@@H](CC(=O)O)C(=O)NCC(=O)NCC(N)=O [ACTB pY240 P243L] (Ac-QSLEKS[pY]ELLDGG-NH2) | 141
4 | CSCC[C@H](NC(=O)[C@H](CCC(N)=O)NC(C)=O)C(=O)N[C@@H](CCC(=O)O)C(=O)N[C@@H](CCCCN)C(=O)N[C@@H](Cc1c[nH]cn1)C(=O)N[C@H](C(=O)N[C@@H](Cc1ccc(OP(=O)(O)O)cc1)C(=O)N[C@@H](CCC(=O)O)C(=O)N[C@@H](CO)C(=O)N[C@H](C(=O)N[C@H](C(=O)N[C@@H](CCC(N)=O)C(=O)NCC(N)=O)[C@@H](C)O)C(C)C)C(C)C [Syn-F-2] (Ac-QMEKHV[pY]ESVTQG-NH2) | 18.3

same assay, conditions: Table S3, unpaired validation; competition fluorescence polarization; probe FITC-Ahx-GDG-pY-EEISPLLL-NH2 0.4 nM; [SH2] 4.12 nM; mean; read-out: Kd mean

Row | Compound | Kd [nM]
5 | CC[C@H](C)[C@H](NC(=O)[C@H](CC(C)C)NC(=O)[C@H](CO)NC(=O)[C@H](Cc1ccc(OP(=O)(O)O)cc1)NC(=O)[C@H](CCCNC(=N)N)NC(=O)[C@H](CCCNC(=N)N)NC(=O)[C@H](CCC(N)=O)NC(=O)[C@H](CC(=O)O)NC(=O)[C@H](CO)NC(=O)[C@H](CCC(N)=O)NC(C)=O)C(=O)N[C@@H](CC(=O)O)C(=O)N1CCC[C@H]1C(=O)NCC(N)=O [CLIP2 pY972 R977P] (Ac-QSDQRR[pY]SLIDPG-NH2) | 27
6 | CC[C@H](C)[C@H](NC(=O)CNC(=O)[C@H](CCC(=O)O)NC(=O)[C@@H](NC(=O)[C@H](CCC(N)=O)NC(C)=O)C(C)C)C(=O)NCC(=O)N[C@@H](Cc1ccc(OP(=O)(O)O)cc1)C(=O)N[C@@H](CC(=O)O)C(=O)N[C@@H](Cc1ccccc1)C(=O)N[C@H](C(=O)N1CCC[C@H]1C(=O)N[C@H](C(=O)NCC(N)=O)[C@@H](C)O)[C@@H](C)CC [CBS pY308] (Ac-QVEGIG[pY]DFIPTG-NH2) | 126
7 | CC(=O)N[C@@H](CCC(N)=O)C(=O)N[C@@H](CO)C(=O)N[C@@H](CC(C)C)C(=O)N[C@@H](CCC(=O)O)C(=O)N[C@@H](CCCCN)C(=O)N[C@@H](CO)C(=O)N[C@@H](Cc1ccc(OP(=O)(O)O)cc1)C(=O)N[C@@H](CCC(=O)O)C(=O)N[C@@H](CC(C)C)C(=O)N1CCC[C@H]1C(=O)N[C@@H](CC(=O)O)C(=O)NCC(=O)NCC(N)=O [ACTB pY240] (Ac-QSLEKS[pY]ELPDGG-NH2) | 159
8 | CC[C@H](C)[C@H](NC(=O)[C@H](CC(C)C)NC(=O)[C@H](CO)NC(=O)[C@H](Cc1ccc(OP(=O)(O)O)cc1)NC(=O)[C@H](CCCNC(=N)N)NC(=O)[C@H](CCCNC(=N)N)NC(=O)[C@H](CCC(N)=O)NC(=O)[C@H](CC(=O)O)NC(=O)[C@H](CO)NC(=O)[C@H](CCC(N)=O)NC(C)=O)C(=O)N[C@@H](CC(=O)O)C(=O)N[C@@H](CCCNC(=N)N)C(=O)NCC(N)=O [CLIP2 pY972] (Ac-QSDQRR[pY]SLIDRG-NH2) | 78.5
